Laboratory results reported in ChEMBL document CHEMBL1201862, “PubChem BioAssay data set” (2004).
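Method: 48-hour compound exposure of cells in 96-well plates, five concentrations, linear interpolation of endpoints. Abbreviation: GI50, concentration required for 50% inhibition of growth.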 Active and inactive are the calls of the source. Cut-off read from the data, not from the text of the source: active = GI50 up to about 1.1 µM and inactive = higher.

Legend:
Test in all cases: DTP human tumour cell line panel, 48 h
[1] = system: OVCAR-8
[2] = system: DMS-273
[3] = system: RXF 393
[4] = system: HL-60
[5] = system: HT-29
[6] = system: SK-MEL-5
[7] = system: A549
[8] = system: MOLT-4
[9] = system: RPMI-8226
[10] = system: HCT-15
[11] = system: DLD-1
[12] = system: SF-268
[13] = system: SNB-78
[14] = system: EKVX
[15] = system: OVCAR-5
[16] = system: HOP-62
[17] = system: OVCAR-3
[18] = system: LOX IMVI
[19] = system: M19-MEL
[20] = system: UACC-257
[21] = system: SW-620
[22] = system: NCI/ADR-RES
[23] = system: SK-MEL-2
[24] = system: 786-0
[25] = system: UO-31
[26] = system: KM-20L2
[27] = system: UACC-62
[28] = system: NCI-H226
[29] = system: SR
[30] = system: SK-MEL-28
[31] = system: U-251
[32] = system: RXF 631
[33] = system: COLO 205
[34] = system: HOP-18
[35] = system: K562
[36] = system: IGROV-1
[37] = system: OVCAR-4
[38] = system: NCI-H522
[39] = system: HCT-116
[40] = system: CCRF-CEM
[41] = system: NCI-H23
[42] = system: KM12
[43] = system: SK-OV-3
[44] = system: A498
[45] = system: LXFL 529
[46] = system: HCC 2998
[47] = system: SN12C
[48] = system: M14
[49] = system: SNB-75
[50] = system: Malme-3M
[51] = system: NCI-H460
[52] = system: SF-295
[53] = system: XF498
[54] = system: HOP-92
[55] = system: DMS-114
[56] = system: SNB-19
[57] = system: MCF7
[58] = system: CAKI-1
[59] = system: SF-539
[60] = system: TK-10
[61] = system: ACHN

Question: With `CCC[S+]([O-])c1nc(COC(=O)NC)c(COC(=O)NC)n1C` (stereo unspecified) as the compound, how does the GI50 [1] read?
Answer: > 100 µM (inactive)

Question: And the GI50 [2]?
Answer: > 100 µM (inactive)

Question: What about the GI50 [3] of the same compound?
Answer: > 100 µM (inactive)

Question: What about the GI50 [4] of the same compound?
Answer: > 100 µM (inactive)

Question: What about the GI50 [5] of the same compound?
Answer: > 100 µM (inactive)

Question: What about the GI50 [6] of the same compound?
Answer: > 100 µM (inactive)

Question: What about the GI50 [7] of the same compound?
Answer: > 100 µM (inactive)

Question: And the GI50 [8]?
Answer: > 100 µM (inactive)

Question: What about the GI50 [9] of the same compound?
Answer: > 100 µM (inactive)

Question: And the GI50 [10]?
Answer: > 100 µM

Question: What about the GI50 [11] of the same compound?
Answer: > 100 µM (inactive)

Question: What about the GI50 [12] of the same compound?
Answer: > 100 µM (inactive)

Question: What about the GI50 [13] of the same compound?
Answer: > 100 µM (inactive)

Question: What about the GI50 [14] of the same compound?
Answer: > 100 µM (inactive)

Question: And the GI50 [15]?
Answer: > 100 µM (inactive)

Question: And the GI50 [16]?
Answer: > 100 µM (inactive)

Question: What about the GI50 [17] of the same compound?
Answer: > 100 µM (inactive)

Question: And the GI50 [18]?
Answer: > 100 µM (inactive)

Question: And the GI50 [19]?
Answer: > 100 µM (inactive)

Question: What about the GI50 [20] of the same compound?
Answer: > 100 µM (inactive)

Question: And the GI50 [21]?
Answer: > 100 µM (inactive)

Question: And the GI50 [22]?
Answer: > 100 µM (inactive)

Question: What about the GI50 [23] of the same compound?
Answer: > 100 µM (inactive)

Question: And the GI50 [24]?
Answer: > 100 µM (inactive)

Question: And the GI50 [25]?
Answer: > 100 µM (inactive)

Question: And the GI50 [26]?
Answer: > 100 µM (inactive)

Question: And the GI50 [27]?
Answer: > 100 µM (inactive)

Question: What about the GI50 [28] of the same compound?
Answer: > 100 µM (inactive)

Question: What about the GI50 [29] of the same compound?
Answer: > 100 µM (inactive)

Question: And the GI50 [30]?
Answer: > 100 µM (inactive)

Question: And the GI50 [31]?
Answer: > 100 µM (inactive)

Question: And the GI50 [32]?
Answer: > 100 µM (inactive)

Question: What about the GI50 [33] of the same compound?
Answer: > 100 µM (inactive)

Question: What about the GI50 [34] of the same compound?
Answer: > 100 µM (inactive)

Question: And the GI50 [35]?
Answer: > 100 µM (inactive)

Question: And the GI50 [36]?
Answer: > 100 µM (inactive)

Question: What about the GI50 [37] of the same compound?
Answer: > 100 µM (inactive)

Question: And the GI50 [38]?
Answer: > 100 µM (inactive)

Question: What about the GI50 [39] of the same compound?
Answer: > 100 µM (inactive)

Question: What about the GI50 [40] of the same compound?
Answer: > 100 µM (inactive)

Question: And the GI50 [41]?
Answer: > 100 µM (inactive)

Question: What about the GI50 [42] of the same compound?
Answer: > 100 µM (inactive)

Question: What about the GI50 [43] of the same compound?
Answer: > 100 µM (inactive)

Question: What about the GI50 [44] of the same compound?
Answer: > 100 µM (inactive)

Question: And the GI50 [45]?
Answer: > 100 µM (inactive)

Question: What about the GI50 [46] of the same compound?
Answer: > 100 µM (inactive)

Question: And the GI50 [47]?
Answer: > 100 µM (inactive)

Question: And the GI50 [48]?
Answer: > 100 µM (inactive)

Question: And the GI50 [49]?
Answer: > 100 µM (inactive)

Question: What about the GI50 [50] of the same compound?
Answer: > 100 µM (inactive)

Question: And the GI50 [51]?
Answer: > 100 µM (inactive)

Question: What about the GI50 [52] of the same compound?
Answer: > 100 µM (inactive)

Question: What about the GI50 [53] of the same compound?
Answer: > 100 µM (inactive)

Question: And the GI50 [54]?
Answer: > 100 µM (inactive)

Question: What about the GI50 [55] of the same compound?
Answer: > 100 µM (inactive)

Question: And the GI50 [56]?
Answer: > 100 µM (inactive)

Question: And the GI50 [57]?
Answer: > 100 µM (inactive)

Question: What about the GI50 [58] of the same compound?
Answer: > 100 µM (inactive)

Question: And the GI50 [59]?
Answer: > 100 µM (inactive)

Question: With `CCN(CC)c1ccc2c(c1)N=C1N=CC=CN1C2(c1ccc(N(C)C)cc1)c1ccc(N(C)C)cc1` as the compound, how does the GI50 [1] read?
Answer: 4.19 µM (inactive)

Question: What about the GI50 [2] of the same compound?
Answer: 25.8 µM (inactive)

Question: What about the GI50 [3] of the same compound?
Answer: 8.57 µM (inactive)

Question: And the GI50 [4]?
Answer: 1.43 µM (inactive)

Question: And the GI50 [5]?
Answer: 3.12 µM (inactive)

Question: And the GI50 [6]?
Answer: 11.9 µM (inactive)

Question: And the GI50 [7]?
Answer: 12 µM (inactive)

Question: What about the GI50 [8] of the same compound?
Answer: 2.47 µM (inactive)

Question: And the GI50 [9]?
Answer: 2.9 µM (inactive)

Question: What about the GI50 [10] of the same compound?
Answer: 10.9 µM

Question: What about the GI50 [11] of the same compound?
Answer: 4.53 µM (inactive)

Question: And the GI50 [12]?
Answer: 11 µM (inactive)

Question: What about the GI50 [13] of the same compound?
Answer: 16.7 µM (inactive)

Question: What about the GI50 [14] of the same compound?
Answer: 9.73 µM (inactive)

Question: What about the GI50 [15] of the same compound?
Answer: 13.3 µM (inactive)

Question: What about the GI50 [16] of the same compound?
Answer: 10.9 µM (inactive)

Question: What about the GI50 [17] of the same compound?
Answer: 3.16 µM (inactive)

Question: And the GI50 [18]?
Answer: 5.25 µM (inactive)

Question: What about the GI50 [19] of the same compound?
Answer: 5.97 µM (inactive)

Question: What about the GI50 [20] of the same compound?
Answer: 5.24 µM (inactive)

Question: What about the GI50 [23] of the same compound?
Answer: 12.6 µM (inactive)

Question: What about the GI50 [24] of the same compound?
Answer: 7.73 µM (inactive)

Question: What about the GI50 [25] of the same compound?
Answer: 7.48 µM (inactive)

Question: And the GI50 [26]?
Answer: 2.97 µM (inactive)

Question: And the GI50 [27]?
Answer: 10.7 µM (inactive)

Question: What about the GI50 [28] of the same compound?
Answer: 10.8 µM (inactive)

Question: And the GI50 [29]?
Answer: 3.61 µM (inactive)

Question: What about the GI50 [30] of the same compound?
Answer: 10.8 µM (inactive)

Question: What about the GI50 [31] of the same compound?
Answer: 4.32 µM (inactive)

Question: And the GI50 [32]?
Answer: 3.83 µM (inactive)

Question: And the GI50 [33]?
Answer: 2.36 µM (inactive)

Question: What about the GI50 [60] of the same compound?
Answer: 13 µM (inactive)

Question: And the GI50 [34]?
Answer: 3.72 µM (inactive)

Question: And the GI50 [35]?
Answer: 2.3 µM (inactive)

Question: And the GI50 [61]?
Answer: 4.5 µM (inactive)

Question: What about the GI50 [36] of the same compound?
Answer: 10.4 µM (inactive)

Question: What about the GI50 [38] of the same compound?
Answer: 1.74 µM (inactive)

Question: What about the GI50 [39] of the same compound?
Answer: 3.85 µM (inactive)

Question: What about the GI50 [40] of the same compound?
Answer: 8.55 µM (inactive)

Question: What about the GI50 [41] of the same compound?
Answer: 6.95 µM (inactive)

Question: What about the GI50 [42] of the same compound?
Answer: 4.42 µM (inactive)

Question: And the GI50 [43]?
Answer: 2.61 µM (inactive)

Question: And the GI50 [44]?
Answer: 17.5 µM (inactive)

Question: And the GI50 [45]?
Answer: 3.84 µM (inactive)

Question: What about the GI50 [46] of the same compound?
Answer: 3.24 µM (inactive)

Question: What about the GI50 [47] of the same compound?
Answer: 5.27 µM (inactive)

Question: What about the GI50 [48] of the same compound?
Answer: 3.32 µM (inactive)

Question: What about the GI50 [49] of the same compound?
Answer: 11.6 µM (inactive)

Question: And the GI50 [50]?
Answer: 12.7 µM (inactive)

Question: What about the GI50 [51] of the same compound?
Answer: 5.62 µM (inactive)

Question: What about the GI50 [52] of the same compound?
Answer: 3.64 µM (inactive)

Question: And the GI50 [53]?
Answer: 3.72 µM (inactive)

Question: What about the GI50 [54] of the same compound?
Answer: 2.82 µM (inactive)

Question: And the GI50 [55]?
Answer: 3.09 µM (inactive)

Question: And the GI50 [56]?
Answer: 11.4 µM (inactive)

Question: What about the GI50 [58] of the same compound?
Answer: 11.1 µM (inactive)

Question: What about the GI50 [59] of the same compound?
Answer: 14.6 µM (inactive)
